From ChEMBL document CHEMBL3880421, “Indazole compounds and pharmaceutical compositions for inhibiting protein kinases, and methods for their use” (2003) come the findings set out here.

Assay [1] in a line: Antiproliferative activity against VEGF-stimulated HUVEC cells assessed as reduction in cell viability at 0.5 nM preincubated for 1 hr followed by addition of VEGF measured after 72 hrs by MTT assay. As to conditions: Homo sapiens. It is filed as functional.
Assay [2] in a line: Antiproliferative activity against VEGF-stimulated HUVEC cells assessed as reduction in cell viability at 2 nM preincubated for 1 hr followed by addition of VEGF measured after 72 hrs by MTT assay. The note with it: Homo sapiens. In kind it is functional.

With `CN(C)NC(=O)c1ccccc1Nc1ccc2c(/C=C/c3ccccn3)n[nH]c2c1`, the inhibition at 0.0005 µM in assay [1] came out at 31%. In addition, in assay [2], the inhibition at 0.002 µM turned out to be 20%.

Regarding `O=C(Nc1nc2ccccc2[nH]1)c1ccccc1Nc1ccc2c(/C=C/c3ccccn3)n[nH]c2c1`, in assay [1], the inhibition at 0.0005 µM is 18%. The inhibition at 0.002 µM in assay [2] turned out to be 43%.

With `CC(CCc1ccccc1)NC(=O)c1ccccc1Nc1ccc2c(/C=C/c3ccccn3)n[nH]c2c1` (stereo unspecified), the inhibition at 0.0005 µM in assay [1] was 50%. For the same molecule, the inhibition at 0.002 µM in assay [2] turned out to be 40%.

For `N#CCNC(=O)c1ccccc1Nc1ccc2c(/C=C/c3ccccn3)n[nH]c2c1`, in assay [1], the inhibition at 0.0005 µM was found to be 18%. Moreover, in assay [2], the inhibition at 0.002 µM was 40%.

For the molecule `CC(C)NC(=O)c1ccccc1Nc1ccc2c(/C=C/c3ccccn3)n[nH]c2c1`, the inhibition at 0.0005 µM in assay [1] amounted to 22%. The inhibition at 0.002 µM in assay [2] is 43%.

With `O=C(NNCC(F)(F)F)c1ccccc1Nc1ccc2c(/C=C/c3ccccn3)n[nH]c2c1`, the inhibition at 0.0005 µM in assay [1] was 16%. Moreover, the inhibition at 0.002 µM in assay [2] was 42%.

Consider `O=C(NCCc1ccccc1)c1ccccc1Nc1ccc2c(/C=C/c3ccccn3)n[nH]c2c1`, for which the inhibition at 0.0005 µM in assay [1] came out at 15%. Further, the inhibition at 0.002 µM in assay [2] was determined as 99%.

As for `O=C(NCCS(=O)(=O)O)c1ccccc1Nc1ccc2c(/C=C/c3ccccn3)n[nH]c2c1`, the inhibition at 0.0005 µM in assay [1] was found to be 16%. Further, the inhibition at 0.002 µM in assay [2] was determined as 21%.

For the molecule `O=C(NCCCO)c1ccccc1Nc1ccc2c(/C=C/c3ccccn3)n[nH]c2c1`, in assay [1], the inhibition at 0.0005 µM lay within 8 to 24%. Also, the inhibition at 0.002 µM in assay [2] was 23 to 31%.

For the molecule `CCOCCNC(=O)c1ccccc1Nc1ccc2c(/C=C/c3ccccn3)n[nH]c2c1`, the inhibition at 0.0005 µM in assay [1] came to 53%. For the same molecule, the inhibition at 0.002 µM in assay [2] came to 75%.

Turning to `NC(=O)[C@H]1CCCC[C@H]1NC(=O)c1ccccc1Nc1ccc2c(/C=C/c3ccccn3)n[nH]c2c1`, in assay [1], the inhibition at 0.0005 µM amounted to 21%. For the same molecule, in assay [2], the inhibition at 0.002 µM turned out to be 39%.

Take `CCCCC(CC)CNC(=O)c1ccccc1Nc1ccc2c(/C=C/c3ccccn3)n[nH]c2c1` (stereo unspecified): in assay [1], the inhibition at 0.0005 µM is 28%. Also, the inhibition at 0.002 µM in assay [2] came to 47%.

On to `O=C(NCCC1=CCCCC1)c1ccccc1Nc1ccc2c(/C=C/c3ccccn3)n[nH]c2c1`, for which, in assay [1], the inhibition at 0.0005 µM amounted to 24%. For the same molecule, the inhibition at 0.002 µM in assay [2] turned out to be 86%.

Turning to `C[C@H](CO)NC(=O)c1ccccc1Nc1ccc2c(/C=C/c3ccccn3)n[nH]c2c1`, in assay [1], the inhibition at 0.0005 µM was 13%. The inhibition at 0.002 µM in assay [2] amounted to 20%.

Consider `O=C(NC1CCc2ccccc21)c1ccccc1Nc1ccc2c(/C=C/c3ccccn3)n[nH]c2c1` (stereo unspecified), for which, in assay [1], the inhibition at 0.0005 µM was 19%. Also, the inhibition at 0.002 µM in assay [2] amounted to 86%.

With `CSc1nc(NC(=O)c2ccccc2Nc2ccc3c(/C=C/c4ccccn4)n[nH]c3c2)nn1C`, in assay [1], the inhibition at 0.0005 µM came to 16%. Moreover, the inhibition at 0.002 µM in assay [2] turned out to be 2%.

With `O=C(NCC(O)CO)c1ccccc1Nc1ccc2c(/C=C/c3ccccn3)n[nH]c2c1` (stereo unspecified), in assay [1], the inhibition at 0.0005 µM worked out at 22%. Further, in assay [2], the inhibition at 0.002 µM was 20%.

Consider `COCC(C)NC(=O)c1ccccc1Nc1ccc2c(/C=C/c3ccccn3)n[nH]c2c1` (stereo unspecified), for which the inhibition at 0.0005 µM in assay [1] worked out at 18%. In addition, the inhibition at 0.002 µM in assay [2] was found to be 32%.

As for `CCOCCCNC(=O)c1ccccc1Nc1ccc2c(/C=C/c3ccccn3)n[nH]c2c1`, the inhibition at 0.0005 µM in assay [1] came out at 44%. Moreover, the inhibition at 0.002 µM in assay [2] was found to be 97%.

For the molecule `O=C(NNC1=NCCN1)c1ccccc1Nc1ccc2c(/C=C/c3ccccn3)n[nH]c2c1`, the inhibition at 0.0005 µM in assay [1] came out at 34%. In assay [2], the inhibition at 0.002 µM worked out at 69%.

For `O=C(NCCO)c1ccccc1Nc1ccc2c(/C=C/c3ccccn3)n[nH]c2c1`, the inhibition at 0.0005 µM in assay [1] came out at 18%. Moreover, the inhibition at 0.002 µM in assay [2] is 24%.

In the case of `CCCCN(CCCC)CCCNC(=O)c1ccccc1Nc1ccc2c(/C=C/c3ccccn3)n[nH]c2c1`, the inhibition at 0.0005 µM in assay [1] came out at 32%. Further, in assay [2], the inhibition at 0.002 µM is 10%.

Regarding `Cc1csc(NC(=O)c2ccccc2Nc2ccc3c(/C=C/c4ccccn4)n[nH]c3c2)n1`, in assay [1], the inhibition at 0.0005 µM was 15%. Besides, the inhibition at 0.002 µM in assay [2] was found to be 95%.
